Data: PMC12070314, “Efficient Small-Molecule Reversal Agents for Anticoagulant Fondaparinux” (ACS Pharmacology & Translational Science, 2025)

Assays:
[1] = tested on: FXa/ATIII inhibited by fondaparinux; experiment: In vitro FXa/ATIII enzymatic assay of anti-fondaparinux activity; format: biochemical, human; settings: for Restoration of FXa protease activity (hydrolysis rate of the peptide substrate): 15 μM fond + 9 or 15 μM antidote, HPLC
Experimental: The activity of two spermine derivatives, 3AC and 3FF, as fond antidotes was evaluated with an in vitro enzymatic assay related to blood coagulation, as previously described (Figure A). , In brief, fond promotes a conformational change in ATIII toward an efficient inhibitor of FXa. Addition of a ligand of fond hinders the inhibitory action of ATIII restoring the FXa hydrolytic activity, which has been used as an indirect measurement of antifond behavior.
Recombinant antithrombin III and coagulation factor Xa were obtained from two different kits, Berichrom Heparin test (SIEMENS) and Kinetichrome Anti-Xa Heparin kit (Iduron). Methods for both kits are similar, but not identical. Differences will be spotted by method A (SIEMENS) and method B (Iduron). Following the manufacturer’s instructions, stock solutions were prepared as follows: human antithrombin III (1 IU/mL) and factor Xa reagent (0.4 μg/mL, human plasma fraction with additives Tris, sodium chloride, and EDTA). Chromogenic substrate specific for factor Xa was dissolved at 4 mM concentration (A: Z-D-Leu-Gly-Arg-ANBA-methyl amide, and B: Z-D-Arg-Gly-Arg-pNA). Additionally, either 4-nitroaniline (A) or N-Boc-4-nitroaniline (B) was added to the substrate solution at a concentration of 1.6 mM and used as an internal standard to quantify the hydrolysis of the chromogenic substrate. All compounds were dissolved in Milli-Q water at the desired stock concentrations prior to start of the assays and kept at 4 °C. Various concentrations of the ligand, fondaparinux (up to 15 μM) or LMWH (0.1 to 10 μM), human antithrombin III solution (2 μL), and factor Xa reagent solution (35 μL) were consecutively added to an Eppendorf vial and brought to a total volume of 145 μL. Then, 20 μL of reagent substrate solution was added to start the experiment, and the mixture was vigorously shaken at 25 °C. 20 μL aliquots were taken at 5/10/15/20/30/50/80/120 minutes, diluted with 40 μL of acetic acid (20% v/v), and injected into the analytical HPLC system. The gradient ranged from 5% of ACN (0.1% formic acid) in water (0.1% formic acid) to 100% of ACN in 24 min using a 15 × 4.6 mm KROMAPHASE C18 5.0 μm column. In A: the retention time of cleaved chromophore was 9.1 min, retention time of chromogenic substrate was 13.9 min, and retention time of 4-nitroaniline was 15.4 min. In B: the retention time of chromogenic substrate was 11.0 min, retention time of cleaved chromophore was 15.2 min, and retention time of N-Boc-4-nitroaniline was 21.7 min. FXa/ATIII activity was represented as the percent of hydrolysis, which was calculated from the normalized area of the cleaved peptide at 405 nm at each corresponding time point. The experiment carried out in the absence of heparinoid was considered as the maximum of activity, while the experiment with heparinoid and no ligand was considered as negative control (maximum inhibition of FXa by heparinoid). The concentration of heparinoid was selected for the measurement to render significant inhibition within experimental time while allowing the reaction to proceed.

[2] = tested on: freshly extracted mouse blood; experiment: Naked-eye ex vivo blood coagulation assay; format: cell-based; settings: 100 μM fond + 200 μM antidote, 5 min
Experimental: Considering the results obtained in the in vitro assays, we aimed to test our molecules in a more relevant and challenging environment. To this aim, we performed naked-eye ex vivo coagulation assays (Figure ). Freshly extracted mouse blood samples were treated with fond (100 μM final concentration) in the absence and in the presence of different antidotes (two molar equivalents). Blood coagulation was visually inspected by the simple inversion of the vials. For a fair comparison between different series, all of the experiments were done in parallel with the corresponding control samples of untreated mouse blood (labeled “0” in Figure ). […] The effect of antidotes alone on blood coagulation was also tested (Figure B), showing that neither of the three small molecules appreciably changed the coagulation properties.
This naked-eye coagulation test is an adaptation of the whole blood clotting time assay. , Freshly collected mouse blood was directly used without further treatment. 300 μL aliquots were dispensed in Eppendorf tubes, to which fondaparinux (100 μM), and/or potential antidotes (3AC, 3FF, ciraparantag, or protamine, 200 μM) were added, and a picture was taken after 5 min. Clot formation was verified by inverting the Eppendorf vials.

[3] = Hemolysis assay; format: cell-based; settings: freshly isolated mouse erythrocytes, roughly 4-5% suspension, 37 °C
Experimental: Mouse blood (4 mL) was collected in a sodium citrate tube and immediately centrifuged at 1700g for 5 min. The supernatant was removed, and the erythrocytes were washed by adding 2 mL of PBS. It was centrifuged again at 1700g for 5 min. The washing step was repeated twice more. The supernatant was finally removed, and the erythrocytes were diluted in PBS until obtaining a roughly 4–5% suspension. 50 μL of erythrocyte solution was mixed with 50 μL of test compound (3×× at the desired concentration). As a negative control, 50 μL of PBS was used, while 10% Triton X-100 was used as a positive control. The samples were incubated at 37 °C for 60 min. After that, they were centrifuged (1700g for 5 min), and the supernatant was transferred to a 96-well plate. Absorbance was measured at 405 nm. The experiment contained three technical replicates. The results are the average from three independent experiments.

[4] = [fond] = [antidote] = 15 μM, three reaction times

SMILES | Restoration of FXa protease activity (hydrolysis rate of the peptide substrate) [1] | Percent recovery of peptide substrate hydrolysis [1, 4] | Reversal of fond anticoagulant effect (clot formation by vial inversion) [2] | hemolysis at 60 min [3] [%] | Percent recovery of peptide substrate hydrolysis ([1]; [fond] = 15 μM, lower antidote concentration (9 μM), Figure S2)
Oc1ccc2ccccc2c1CNCCCNCCCCNCCCNCc1c(O)ccc2ccccc12 [Compound 3FF] | restore the FXa protease activity in a dose–response manner | almost complete fast recovery up to the control values | efficiently revert the drug effect | < 2 | –
Oc1ccccc1CNCCCNCCCCNCCCNCc1ccc2c(c1)Cc1ccccc1-2 [Compound 3AC] | restore the FXa protease activity in a dose–response manner | almost complete fast recovery up to the control values | efficiently revert the drug effect | < 2 | higher potency
